Laboratory results reported in BindingDB's records for patent US11980598 (Beijing Greatway Pharmaceutical Technology Co., 2024).

Molecular target: T1, 5-hydroxytryptamine receptor 2C (Homo sapiens, UniProt P28335)
T1 sequence (P28335 whole entry): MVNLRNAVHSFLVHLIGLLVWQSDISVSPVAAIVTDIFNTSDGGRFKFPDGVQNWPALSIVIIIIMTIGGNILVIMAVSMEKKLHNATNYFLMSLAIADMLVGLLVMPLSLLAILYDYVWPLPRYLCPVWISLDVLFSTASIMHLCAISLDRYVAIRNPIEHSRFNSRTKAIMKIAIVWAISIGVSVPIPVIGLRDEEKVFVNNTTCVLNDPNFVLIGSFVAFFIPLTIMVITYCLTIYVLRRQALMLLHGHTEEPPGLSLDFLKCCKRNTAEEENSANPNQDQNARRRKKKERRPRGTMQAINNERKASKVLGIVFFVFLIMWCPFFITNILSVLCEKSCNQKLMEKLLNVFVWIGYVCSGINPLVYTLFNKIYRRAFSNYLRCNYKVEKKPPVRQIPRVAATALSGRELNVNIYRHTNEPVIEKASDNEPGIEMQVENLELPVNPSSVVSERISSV
Test: 5-HT2C Receptor Binding Test
Protocol: 50 μg of the receptor membrane protein 5-HT2C was added to all the tubes. […] All the tubes were added with 40 μL of [3H]-LSD (lysergic acid diethylamide), respectively. […] The filter paper was taken out and dried by baking, and then placed in a scintillation bottle. 1 mL of the scintillation liquid was added, and the radioactive intensity was measured by a liquid scintillation counter

Structure (SMILES) | IC50 [nM]
COc1cc2c(CCNC(C)=O)cccc2cc1Cl [US11980598, Compound 1] | 0.77
COc1cc2c(CCNC(C)=O)cccc2cc1F [US11980598, Compound 4] | 20.8
